The text below walks through data of publication PMC9644403, “L-type Amino Acid Transporter 1 Utilizing Ferulic Acid Derivatives Show Increased Drug Delivery in the Mouse Pancreas Along with Decreased Lipid Peroxidation and Prostaglandin Production” (Molecular Pharmaceutics, 2022).

The subject of series [1] is human umbilical vein endothelial cells (HUVECs). Put plainly: HUVEC viability, WST-1 assay. In kind it is cell-based. The conditions noted are these: WST-1, 24 h. The method, then: As a third in vitro toxicity study in the human blood circulation system, the effects of FA, D1, and D2 on the viability of human umbilical vein endothelial cells (HUVECs; RRID CVCL_2959; Lonza, Italy; Cat. no. CC-2517) were determined using the WST-1 assay (Takara, Takara Bio Europe, Europe, Saint-Germain-en-Laye, France), according to the previously published protocol.[32] Briefly, the cells were cultured according to the manufacturer’s guidelines with the following ingredients: EGM-2-medium + bullet kit (Lonza, Clonetics, Italy), accutase (Sigma-Aldrich, Germany), and HEPES-buffered saline solution (Lonza, Basel, Switzerland). For the assay, the cells were seeded at the density of 7 500 HUVECs per well on 96-well plates and cultured for 24 h to obtain 70% confluency. Subsequently, the cells were treated with studied compounds in multiplicate (n = 6–8) at the concentration of 0.1–100 μM in the growth medium for 24 h (37 °C, 5% CO2). Cells with untreated growth medium represented 100% viability, whereas cells treated with medium containing 0.5% (v/v) methanol served as a negative control for drug solvent. After treating cells for 24 h, medium was removed, the cells were washed with the culture medium (100 μl/well), and 100 μL of WST-1 reagent dissolved in culture medium was added into each well. The plates were incubated at 37 °C with 5% CO2 for 2 h, after which absorbance values were measured at the 450 nm wavelength using a microplate reader (iMARK, Bio-Rad). Additionally, the effects of treatments on HUVEC morphology were examined microscopically using a phase-contrast Opta-Tech inverted microscope equipped with OptaView 7 software (Opta-Tech, Warsaw, Poland) for image analysis.

Series [2] deals with human plasma. Put plainly: Coagulation parameters (PT, INR, APTT, TT) in human plasma. The method, then: To assess the safety of the LAT1 derivatives in the human blood circulation system, the basic coagulation parameters, prothrombin time (PT), activated partial thromboplastin time (APTT), thrombin time (TT), and international normalized ratio (INR) were determined from human plasma in the presence of FA, D1, and D2. The parameters were studied using a coagulometer (CoagChrom-3003 Bio-Ksel, Grudziądz, Poland), with the previously described methods.[25],[31] The following reagents were used in the basic coagulation studies: Bio-Ksel System APTT reagent and calcium chloride, Bio-Ksel PT plus reagent (thromboplastin and solvent), and thrombin (3.0 UNIH/mL), (Bio-Ksel, Grudziądz, Poland). The experiments were performed using citrated human plasma. Control samples consisting of drug solvents [distilled water and methanol mixture (1:2 v/v)] were conducted. The methods were validated using normal plasma (Bio-Ksel, Grudziądz, Poland). Coefficients of variability (CV) were counted (n = 5): CV(PT) = 5.34%, CV(APTT) = 2.61%, CV(TT) = 1.82%. Following reference values for each test were applied: PT: 9.7–14.6 s; APTT: 26.7–40.0 s; and TT: 14.0–18.0 s for 3.0 UNIH/mL of thrombin.

The conditions of series [3]: previous in vitro bioconversion studies; cited from earlier work.
In series [4] the test system is LAT1. More on the design: method as in PMID 31814871, PMID 35011270. The conditions noted are these: previous uptake mechanism studies; cited from earlier work.

With `COc1cc(C=CC(=O)O)ccc1O` [ferulic acid, 4-hydroxy-3-methoxycinnamic acid], in series [1], the “effect on HUVEC viability at 1–50 μM” value is listed as “no statistically significant effect”. Moreover, in series [2], the “effect on INR” value is given as “increased INR”. The “prothrombin time (PT)” value in series [2] (100 μM, control 13.2 ± 1.3 s) was 15.5 ± 0.4 s.
Take `COc1cc(C=CC(=O)NCc2cccc(CC(N)C(=O)O)c2)ccc1O` (centres unmarked) [derivative 1]: in series [3], the “release of FA in the mouse liver” value is “neither D1 nor D2 released FA”. The “effect on APTT” value in series [2] (100 μM) is on record as “prolonged the APTT”.
Take `COc1cc(/C=C/C(=O)Nc2cccc(C[C@H](N)C(=O)O)c2)ccc1O` [derivative 2]: in series [4], the “affinity toward LAT1 compared to the secondary transport mechanism” value is on record as “over 20 times” and the “overall uptake speed compared to D1” value was 1.5 times. The “release of FA in the mouse liver” value in series [3] is reported as “neither D1 nor D2 released FA”.
